Patent US6608082B1, “Treatment of erectile dysfunction using isoquinoline compound melanocortin receptor ligands” (Lion Bioscience AG, priority 1998, dated 2003)

target: T1, MCR-1 (Homo sapiens, UniProt Q01726); experiment: Melanocortin receptor binding assay, competition with 125I-HP 467, HEK 293 cells expressing hMCR-1; settings: TRG 2405 section; inhibition of binding of 125I-HP 467, HEK 293 cells expressing MCR-1; read-out: MC-1 IC50
T1 construct: expressed in transfected cells; host or cells: HEK 293
T1 sequence (Q01726 whole entry): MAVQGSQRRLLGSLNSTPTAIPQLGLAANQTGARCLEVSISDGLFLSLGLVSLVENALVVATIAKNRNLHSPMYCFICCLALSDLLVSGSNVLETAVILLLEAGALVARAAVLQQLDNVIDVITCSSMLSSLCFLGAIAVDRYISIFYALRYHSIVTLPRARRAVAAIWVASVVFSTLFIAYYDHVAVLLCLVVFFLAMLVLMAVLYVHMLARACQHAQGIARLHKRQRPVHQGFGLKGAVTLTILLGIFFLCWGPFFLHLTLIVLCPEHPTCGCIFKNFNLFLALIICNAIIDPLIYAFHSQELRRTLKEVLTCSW
How it was run: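 Intact-cell competition binding, 2.5 hr at 37 °C, in PBS/10% calf serum/1 mM CaCl2; hMCR-4 cells at 4×10^3 per tube, hMCR-1 cells at 2×10^4 per tube. Filtration on BSA/CaCl2-soaked GF/B, cold 50 mM Tris pH 7.4 washes, scintillation count.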

Row | Structure (SMILES) | IC50
1 | CNC(CN)CN1Cc2ccccc2C(CNC2CCCCC2)C1c1cccn1C (mixture of isomers) [TRG 2405-94] | 2110 nM

same assay, conditions: TRG 2406 and TRG 2407 libraries; inhibition of binding of 125I-HP 467; read-out: MC-1 IC50

Row | Structure (SMILES) | IC50
2 | CNC(CN)CCCCN1Cc2ccccc2C(CNCc2ccccc2O)C1c1cccc(Oc2ccc(Cl)c(Cl)c2)c1 (mixture of isomers) [TRG 2406-4] | 1720 nM
3 | NCCN1Cc2ccccc2C(CNCc2ccccc2O)C1c1ccc(Oc2ccccc2)cc1 (mixture of isomers) [TRG 2406-11] | 10500 nM
4 | CNC(CN)CCCCN1Cc2ccccc2C(CNc2ccccc2)C1c1ccc(Cl)cc1Cl (mixture of isomers) [TRG 2407-1] | 5570 nM
5 | CNC(CN)CCCCN1Cc2ccccc2C(CNCc2ccccc2OC)C1c1ccc(Cl)cc1Cl (mixture of isomers) [TRG 2407-14] | 370 nM

same assay, conditions: TRG 2414 library; inhibition of binding of 125I-HP 467, HEK 293 cells expressing MCR-1; read-out: MC-1 IC50

Row | Structure (SMILES) | IC50
6 | CCCOc1ccc(C2C(CNCc3ccccc3)c3ccccc3CN2CCCCC(CN)NCC(C)c2ccc(CC(C)C)cc2)cc1 (mixture of isomers) [Cmpd 192] | 11400 nM

same assay, conditions: displacement of 125I-HP 467 at 10 μM isoquinoline compound; first of duplicate

Row | Structure (SMILES) | % Disp. MC-1 10 μM
7 | CNC(CN)CN1Cc2ccccc2C(CNC2CCCCC2)C1c1cccn1C (mixture of isomers) [TRG 2405-94] | 68.9%

same assay, conditions: displacement of 125I-HP 467 at 10 μM isoquinoline compound; second of duplicate

Row | Structure (SMILES) | % Disp. MC-1 10 μM
8 | CNC(CN)CN1Cc2ccccc2C(CNC2CCCCC2)C1c1cccn1C (mixture of isomers) [TRG 2405-94] | 72%

same assay, conditions: inhibition of binding of 125I-HP 467, HEK 293 cells expressing MCR-1; read-out: MC-1 IC50

Row | Structure (SMILES) | IC50
9 | CCCOc1ccc(C2C(CNCCc3ccccc3)c3ccccc3CN2CCCCC(CN)NC)cc1 (centres unmarked) [TRG 2412-7] | 420 nM
10 | CCCOc1ccc(C2C(CNCCc3ccccc3)c3ccccc3CN2CCCCC(CN)NCCc2ccccc2)cc1 (centres unmarked) [TRG 2412-8] | 830 nM
11 | CCCOc1ccc(C2C(CNCCc3ccccc3)c3ccccc3CN2CCCCC(CN)NCc2ccccc2)cc1 (centres unmarked) [TRG 2412-9] | 570 nM
12 | CCCCOc1ccc(C2C(CNCCc3ccccc3)c3ccccc3CN2CCCCC(CN)NC)cc1 (centres unmarked) [TRG 2412-10] | 310 nM
13 | CCCCOc1ccc(C2C(CNCCc3ccccc3)c3ccccc3CN2CCCCC(CN)NCCc2ccccc2)cc1 (centres unmarked) [TRG 2412-11] | 820 nM
14 | CCCCOc1ccc(C2C(CNCCc3ccccc3)c3ccccc3CN2CCCCC(CN)NCc2ccccc2)cc1 (centres unmarked) [TRG 2412-12] | 540 nM
15 | CCCCCc1ccc(C2C(CNCCc3ccccc3)c3ccccc3CN2CCCCC(CN)NC)cc1 (centres unmarked) [TRG 2412-13] | 450 nM
16 | CCCCCc1ccc(C2C(CNCCc3ccccc3)c3ccccc3CN2CCCCC(CN)NCCc2ccccc2)cc1 (centres unmarked) [TRG 2412-14] | 880 nM
17 | CCCCCc1ccc(C2C(CNCCc3ccccc3)c3ccccc3CN2CCCCC(CN)NCc2ccccc2)cc1 (centres unmarked) [TRG 2412-15] | 750 nM
18 | CCCCCNc1ccc(C2C(CNCCc3ccccc3)c3ccccc3CN2CCCC(CN)NCc2ccccc2)cc1 (centres unmarked) [TRG 2412-18] | 190 nM
19 | CCOc1ccc(C2C(CNCCc3ccccc3)c3ccccc3CN2CCCC(CN)NC)cc1 (centres unmarked) [TRG 2412-19] | 160 nM
20 | CCOc1ccc(C2C(CNCCc3ccccc3)c3ccccc3CN2CCCC(CN)NCCc2ccccc2)cc1 (centres unmarked) [TRG 2412-20] | 150 nM
21 | CCCOc1ccc(C2C(CNCCc3ccccc3)c3ccccc3CN2CCCC(CN)NC)cc1 (centres unmarked) [TRG 2412-22] | 200 nM
22 | CCCOc1ccc(C2C(CNCCc3ccccc3)c3ccccc3CN2CCCC(CN)NCCc2ccccc2)cc1 (centres unmarked) [TRG 2412-23] | 350 nM
23 | CCCOc1ccc(C2C(CNCCc3ccccc3)c3ccccc3CN2CCCC(CN)NCc2ccccc2)cc1 (centres unmarked) [TRG 2412-24] | 410 nM
24 | CCCCOc1ccc(C2C(CNCCc3ccccc3)c3ccccc3CN2CCCC(CN)NCCc2ccccc2)cc1 (centres unmarked) [TRG 2412-26] | 200 nM
25 | CCCCOc1ccc(C2C(CNCCc3ccccc3)c3ccccc3CN2CCCC(CN)NCc2ccccc2)cc1 (centres unmarked) [TRG 2412-27] | 250 nM

Row | Structure (SMILES) | IC50
26 | CCCCCc1ccc(C2C(CNCCc3ccccc3)c3ccccc3CN2CCCC(CN)NC)cc1 (centres unmarked) [TRG 2412-28] | 270 nM
27 | CCCCCc1ccc(C2C(CNCCc3ccccc3)c3ccccc3CN2CCCC(CN)NCCc2ccccc2)cc1 (centres unmarked) [TRG 2412-29] | 500 nM
28 | CNCCNC(CN)CCCCN1Cc2ccccc2C(CNCCc2ccccc2)C1c1ccc(-c2ccccc2)cc1 (centres unmarked) [TRG 2413-1] | 440 nM
29 | CNCCNC(CN)CCCCN1Cc2ccccc2C(CN)C1c1ccc(-c2ccccc2)cc1 (centres unmarked) [TRG 2413-2] | 540 nM
30 | CCNc1ccc(C2C(CN)c3ccccc3CN2CCCCC(CN)NCCNC)cc1 (centres unmarked) [TRG 2413-3] | 1560 nM
31 | CCNc1ccc(C2C(CNCCc3ccccc3)c3ccccc3CN2CCCCC(CN)NCCNC)cc1 (centres unmarked) [TRG 2413-4] | 340 nM
32 | CNC(CN)CCCCN1Cc2ccccc2C(CN)C1c1ccc([N+](=O)[O-])cc1 (centres unmarked) [TRG 2413-6] | 6510 nM
33 | NCCNC(CN)CCCN1Cc2ccccc2C(CN)C1c1ccc(-c2ccccc2)cc1 (centres unmarked) [TRG 2413-7] | 1540 nM
34 | CNC(CN)CCCN1Cc2ccccc2C(CN)C1c1ccc(-c2ccccc2)cc1 (centres unmarked) [TRG 2413-8] | 1840 nM
35 | CCNc1ccc(C2C(CNC3CCCCC3)c3ccccc3CN2CCCC(CN)NCCc2ccccc2)cc1 (centres unmarked) [TRG 2413-10] | 310 nM
36 | CCNc1ccc(C2C(CN)c3ccccc3CN2CCCC(CN)NCCc2ccccc2)cc1 (centres unmarked) [TRG 2413-11] | 130 nM
37 | CCNc1ccc(C2C(CNCCc3ccccc3)c3ccccc3CN2CCCC(CN)NC)cc1 (centres unmarked) [TRG 2413-12] | 190 nM
38 | NCC(CCCN1Cc2ccccc2C(CNCCc2ccccc2)C1c1ccc([N+](=O)[O-])cc1)NCCc1ccccc1 (centres unmarked) [TRG 2413-13] | 1070 nM
39 | NCC(CCCN1Cc2ccccc2C(CNC2CCCCC2)C1c1ccc([N+](=O)[O-])cc1)NCCc1ccccc1 (centres unmarked) [TRG 2413-14] | 1570 nM
40 | NCC(CCCN1Cc2ccccc2C(CN)C1c1ccc([N+](=O)[O-])cc1)NCCc1ccccc1 (centres unmarked) [TRG 2413-15] | 1920 nM
41 | NCC(CCCCN1Cc2ccccc2C(CNCCc2ccc(Oc3ccccc3)cc2)C1c1cc(C(F)(F)F)cc(C(F)(F)F)c1)NCc1ccc(Br)cc1 (centres unmarked) [TRG 2421-28] | 15700 nM
42 | NCC(CCCCN1Cc2ccccc2C(CNCCc2ccc(Oc3ccccc3)cc2)C1c1cc(C(F)(F)F)cc(C(F)(F)F)c1)NCc1ccc(-c2ccccc2)cc1 (centres unmarked) [TRG 2421-30] | 36400 nM

target: T2, MCR-4 (Homo sapiens, UniProt P32245); experiment: Melanocortin receptor binding assay, competition with 125I-HP 467, HEK 293 cells expressing hMCR-4; settings: TRG 2405 section; inhibition of binding of 125I-HP 467, HEK 293 cells expressing MCR-4; read-out: MC-4 IC50
T2 construct: expressed in transfected cells; host or cells: HEK 293
T2 sequence (P32245 whole entry): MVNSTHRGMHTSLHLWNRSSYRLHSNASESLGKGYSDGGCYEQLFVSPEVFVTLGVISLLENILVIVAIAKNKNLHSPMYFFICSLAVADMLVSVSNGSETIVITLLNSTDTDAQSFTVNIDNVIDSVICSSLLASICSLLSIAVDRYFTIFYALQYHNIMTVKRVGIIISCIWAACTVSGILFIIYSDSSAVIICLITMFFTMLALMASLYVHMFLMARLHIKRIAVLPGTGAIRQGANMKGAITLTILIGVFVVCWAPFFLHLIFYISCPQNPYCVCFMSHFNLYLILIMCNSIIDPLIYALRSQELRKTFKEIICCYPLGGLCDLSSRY
Experimental: All cell culture media and reagents were obtained from GibcoBRL (Gaithersburg Md.), except for COSMIC CALF SERUM (HyClone; Logan Utah).
Cells were suspended in PBS, 10% COSMIC CALF SERUM and 1 mM CaCl2. Cell suspensions were prepared at a density of 2×10^4 cells/ml for HEK 293 cells expressing hMCR-3, hMCR-4 or hMCR-5, and 1×10^5 cells/ml for HEK 293 cells expressing hMCR-1. Suspensions were placed in a water bath and allowed to warm to 37° C. for 1 hr.
Binding assays were performed in a total volume of 250 μl for HEK 293 cells. […] To each tube was added 4×10^3 HEK 293 cells expressing hMCR-3, hMCR-4 or hMCR-5, or 2×10^4 cells expressing hMCR-1. Assays were incubated for 2.5 hr at 37° C.
GF/B filter plates were prepared by soaking for at least one hour in 5 mg/ml BSA and 10 mM CaCl2. Assays were filtered using a Brandel 96-well cell harvester (Brandel Inc.; Gaithersburg, Md.). The filters were washed four times with cold 50 mM Tris, pH 7.4, the filter plates were dehydrated for 2 hr and 35 μl of MICROSCINT was added to each well. Filter plates were counted using a Packard Topcount (Packard Instrument Co.) and data analyzed using GraphPad PRISM v2.0 (GraphPad Software Inc.; San Diego Calif.) and Microsoft EXCEL v5.0a (Microsoft Corp.; Redmond Wash.).
To assay isoquinoline compounds, binding assays were performed in duplicate in a 96 well format. […] A 0.2 ml aliquot of suspended cells was added to each well to give the cell numbers indicate above, and the cells were incubated at 37° C. for 2.5 hr. Cells were harvested on GF/B filter plates as described above and counted.

Row | Structure (SMILES) | IC50
43 | CNC(CN)CN1Cc2ccccc2C(CNC2CCCCC2)C1c1cccn1C (mixture of isomers) [TRG 2405-94] | 10500 nM

same assay, conditions: TRG 2406 and TRG 2407 libraries; inhibition of binding of 125I-HP 467; read-out: MC-4 IC50

Row | Structure (SMILES) | IC50
44 | CNC(CN)CCCCN1Cc2ccccc2C(CNCc2ccccc2O)C1c1cccc(Oc2ccc(Cl)c(Cl)c2)c1 (mixture of isomers) [TRG 2406-4] | 3780 nM
45 | NCCN1Cc2ccccc2C(CNCc2ccccc2O)C1c1ccc(Oc2ccccc2)cc1 (mixture of isomers) [TRG 2406-11] | 7000 nM
46 | CNC(CN)CCCCN1Cc2ccccc2C(CNc2ccccc2)C1c1ccc(Cl)cc1Cl (mixture of isomers) [TRG 2407-1] | 10600 nM
47 | CNC(CN)CCCCN1Cc2ccccc2C(CNCc2ccccc2OC)C1c1ccc(Cl)cc1Cl (mixture of isomers) [TRG 2407-14] | 410 nM

same assay, conditions: TRG 2414 library; inhibition of binding of 125I-HP 467, HEK 293 cells expressing MCR-4; read-out: MC-4 IC50

Row | Structure (SMILES) | IC50
48 | CCCOc1ccc(C2C(CNCc3ccccc3)c3ccccc3CN2CCCCC(CN)NCC(C)c2ccc(CC(C)C)cc2)cc1 (mixture of isomers) [Cmpd 192] | 16000 nM

same assay, conditions: inhibition of binding of 125I-HP 467, HEK 293 cells expressing MCR-4; TRG 2414 library

Row | Structure (SMILES) | MC-4 IC50
49 | CC(C)Cc1ccc(C(C)CNC(CN)CCCCN2Cc3ccccc3C(CNCc3ccccc3C(F)(F)F)C2c2ccc(Cl)cc2Cl)cc1 (centres unmarked) [TRG 2414-4] | no fit

same assay, conditions: inhibition of binding of 125I-HP 467, HEK 293 cells expressing MCR-4; TRG 2414 library; read-out: MC-4 IC50

Row | Structure (SMILES) | IC50
50 | NCC(CCCCN1Cc2ccccc2C(CNCc2ccccc2C(F)(F)F)C1c1ccc(Cl)cc1Cl)NCc1ccccc1 (mixture of isomers) [TRG 2414-3] | 65600 nM
51 | NCC(N)CCCCN1Cc2ccccc2C(CNCc2ccccc2C(F)(F)F)C1c1ccc(Cl)cc1Cl (centres unmarked) [TRG 2414-1] | 7590 nM
52 | NCC(CCCCN1Cc2ccccc2C(CNCc2ccccc2C(F)(F)F)C1c1ccc(Cl)cc1Cl)NCCc1ccccc1 (centres unmarked) [TRG 2414-2] | 29300 nM
53 | CCOc1ccccc1CNCC1c2ccccc2CN(CCCCC(N)CN)C1c1ccc(Cl)cc1Cl (centres unmarked) [TRG 2414-5] | 480 nM
54 | CCOc1ccccc1CNCC1c2ccccc2CN(CCCCC(CN)NCCc2ccccc2)C1c1ccc(Cl)cc1Cl (centres unmarked) [TRG 2414-6] | 5540 nM
55 | CCOc1ccccc1CNCC1c2ccccc2CN(CCCCC(CN)NCc2ccccc2)C1c1ccc(Cl)cc1Cl (centres unmarked) [TRG 2414-7] | 4560 nM
56 | CCOc1ccccc1CNCC1c2ccccc2CN(CCCCC(CN)NCC(C)c2ccc(CC(C)C)cc2)C1c1ccc(Cl)cc1Cl (centres unmarked) [TRG 2414-8] | 13800 nM
